Measurements as given in ChEMBL document CHEMBL1128014, “Synthesis and biological activity of a potent antiplatelet 7-aminofurochromone” (Bioorg Med Chem Lett, 1994).

What was measured:
[1] = species on record: Homo sapiens; experiment: Compound was tested for its ability to inhibit ADP-induced human platelet aggregation; format: functional
[2] = species on record: Homo sapiens; experiment: Potency to inhibit ADP-induced human platelet aggregation was determined relative to compound 1(5-Methyl-3-morpholin-4-yl-6-(2-naphthalene-1-one); format: functional
[3] = tested on: Canis familiaris; experiment: Effect on mean arterial pressure was determined at an iv dose of 3 ug/kg/60 min in canine model; format: functional, Canis lupus familiaris, Artery
[4] = tested on: Canis familiaris; experiment: Time interval between start of drug treatment and first change in CFR pattern of blood flow at an iv dose of 10 ug/kg/60 min in a canine model; format: functional, Canis lupus familiaris
[5] = tested on: Canis familiaris; experiment: Effect on mean arterial pressure was determined at an iv dose of 30 ug/kg plus a constant infusion of 3 ug/kg/min in canine model; format: functional, Canis lupus familiaris, Artery
[6] = tested on: Canis familiaris; experiment: Effect on heart rate was determined at an iv dose of 30 ug/kg plus a constant infusion of 3 ug/kg/min in a canine model; format: functional, Canis lupus familiaris
[7] = tested on: Canis familiaris; experiment: Effect on heart rate was determined at an iv dose of 100 ug/kg plus a constant infusion of 10 ug/kg/min in a canine model; format: functional, Canis lupus familiaris
[8] = species on record: Homo sapiens; experiment: Effect on aggregation of thrombin-stimulated washed human platelets at a concentration of 0.1 uM; format: functional
[9] = tested on: Canis familiaris; experiment: Time interval between end of drug treatment and restoration of CFR pattern of blood flow at an iv dose of 3 ug/kg/60 min in canine model; format: functional, Canis lupus familiaris
[10] = tested on: Canis familiaris; experiment: Time interval between end of drug treatment and restoration of CFR pattern of blood flow at an iv dose of 10 ug/kg/60 min in a canine model; format: functional, Canis lupus familiaris
[11] = tested on: Canis familiaris; experiment: Effect on Cyclical Flow Reductions induced by intracoronary platelet aggregation in stenosed canine coronary arteries at an iv dose of 100 ug/kg plus a constant infusion of 10 ug/kg/min in canine model; format: functional, Canis lupus familiaris
[12] = tested on: Canis familiaris; experiment: Time interval between end of drug treatment and restoration of CFR pattern of blood flow at an iv dose of 30 ug/kg plus a constant infusion of 3 ug/kg/min in canine model; format: functional, Canis lupus familiaris
[13] = tested on: Canis familiaris; experiment: Effect on mean arterial pressure was determined at an iv dose of 10 ug/kg plus a constant infusion of 1 ug/kg/min in canine model; format: functional, Canis lupus familiaris, Artery
[14] = tested on: Canis familiaris; experiment: Effect on heart rate was determined at an iv dose of 10 ug/kg plus a constant infusion of 1 ug/kg/min in a canine model; format: functional, Canis lupus familiaris
[15] = tested on: Canis familiaris; experiment: Time interval between start of drug treatment and first change in CFR pattern of blood flow at an iv dose of 100 ug/kg plus a constant infusion of 10 ug/kg/min; format: functional, Canis lupus familiaris
[16] = tested on: Canis familiaris; experiment: Time interval between start of drug treatment and first change in CFR pattern of blood flow at an iv dose of 30 ug/kg plus a constant infusion of 3 ug/kg/min; format: functional, Canis lupus familiaris
[17] = tested on: Canis familiaris; experiment: Effect on mean arterial pressure was determined at an iv dose of 10 ug/kg/60 min in a canine model; format: functional, Canis lupus familiaris, Artery
[18] = tested on: Canis familiaris; experiment: Effect on Cyclical Flow Reductions induced by intracoronary platelet aggregation in stenosed canine coronary arteries at an iv dose of 3 ug/kg/60 min in canine model; format: functional, Canis lupus familiaris
[19] = tested on: Canis familiaris; experiment: Time interval between end of drug treatment and restoration of CFR pattern of blood flow at an iv dose of 10 ug/kg plus a constant infusion of 1 ug/kg/min in canine model; format: functional, Canis lupus familiaris
[20] = species on record: Homo sapiens; experiment: Effect on cAMP levels in washed platelets at a concentration of 0.1 uM; pmol/5E8 platelets; format: functional
[21] = tested on: Canis familiaris; experiment: Effect on heart rate was determined at an iv dose of 10 ug/kg/60 min in a canine model; format: functional, Canis lupus familiaris
[22] = tested on: Canis familiaris; experiment: Effect on Cyclical Flow Reductions induced by intracoronary platelet aggregation in stenosed canine coronary arteries at an iv dose of 10 ug/kg/60 min in a canine model; format: functional, Canis lupus familiaris
[23] = tested on: Canis familiaris; experiment: Effect on Cyclical Flow Reductions induced by intracoronary platelet aggregation in stenosed canine coronary arteries at an iv dose of 30 ug/kg plus a constant infusion of 3 ug/kg/min in canine model; format: functional, Canis lupus familiaris
[24] = tested on: Canis familiaris; experiment: Effect on heart rate was determined at an iv dose of 3 ug/kg/60 min in canine model; format: functional, Canis lupus familiaris
[25] = tested on: Canis familiaris; experiment: Time interval between end of drug treatment and restoration of CFR pattern of blood flow at an iv dose of 100 ug/kg plus a constant infusion of 10 ug/kg/min in canine model; format: functional, Canis lupus familiaris
[26] = tested on: Canis familiaris; experiment: Effect on Cyclical Flow Reductions induced by intracoronary platelet aggregation in stenosed canine coronary arteries at an iv dose of 10 ug/kg plus a constant infusion of 1 ug/kg/min in canine model; format: functional, Canis lupus familiaris
[27] = species on record: Homo sapiens; experiment: Effect on aggregation of thrombin-stimulated washed human platelets at a concentration of 1 uM; format: functional
[28] = species on record: Homo sapiens; experiment: Effect on cAMP levels in washed platelets at a concentration of 0.3 uM; pmol/5E8 platelets; format: functional
[29] = tested on: Canis familiaris; experiment: Effect on mean arterial pressure was determined at an iv dose of 100 ug/kg plus a constant infusion of 10 ug/kg/min in canine model; format: functional, Canis lupus familiaris, Artery
[30] = species on record: Homo sapiens; experiment: Effect on aggregation of thrombin-stimulated washed human platelets at a concentration of 0.3 uM; format: functional
[31] = species on record: Homo sapiens; experiment: Effect on PGI2-stimulated cAMP in washed human platelets at a concentration of 0.3 uM +1 ng/mL of PGI2; pmol/5E8 platelets; format: functional

`Cc1c2oc(CN3CCN(C)CC3)cc2cc2c(=O)cc(N3CCOCC3)oc12` showed an IC50 [1] of 9.1 µM and a Relative potency [2] of 0.9.
`Cc1c2c(cc3c(=O)cc(N4CCOCC4)oc13)CC(CN1CCN(C)CC1)O2` (stereo not given) showed an IC50 [1] of 5.6 µM and a Relative potency [2] of 0.5.
`Cc1c2oc(CN3CCCC3)cc2cc2c(=O)cc(N3CCOCC3)oc12` was tested, and the IC50 [1] was 15.4 µM and the Relative potency [2] was 0.5.
Compound `Cc1c2c(cc3c(=O)cc(N4CCOCC4)oc13)CC(CN1CCCCC1)O2` (stereo not given) has an IC50 [1] of 6.2 µM and a Relative potency [2] of 0.5.
With `Cc1c(OCCN2CCN(C)CC2)ccc2c(=O)cc(N3CCOCC3)oc12` the IC50 [1] was 8.6 µM and the Relative potency [2] was 1.
For `Cc1c2oc(CN3CCSCC3)cc2cc2c(=O)cc(N3CCOCC3)oc12`, the “Mean arterial blood pressure” value [3] was 93%, the Onset time [4] was 8 min and the “Mean arterial blood pressure” value [5] was 88%. The Heart rate [6] was 112%, the Heart rate [7] was 116% and the Activity [8] was 25.7. For the same compound, the Aggregation [8] was 14%, the Offset time [9] was 27 min and the Offset time [10] was 36 min. The CFR rating [11] was 3, the Offset time [12] was 34 min and the “Mean arterial blood pressure” value [13] was 99%. The IC50 [1] was 0.35 µM, the Heart rate [14] was 106% and the Onset time [15] was 1 min. The Onset time [16] was 1 min, the “Mean arterial blood pressure” value [17] was 86% and the CFR rating [18] was 3. For the same compound, the Offset time [19] was 3 min, the Activity [20] was 13.2 and the Heart rate [21] was 116%. It also gave a CFR rating [22] of 3, a Relative potency [2] of 4.5 and a CFR rating [23] of 2. For the same compound, the Heart rate [24] was 104%, the Offset time [25] was >60 min and the CFR rating [26] was 1. It also gave an Activity [27] of 25.7, an Aggregation [27] of 0% and an Activity [28] of 36.1. For the same compound, the “Mean arterial blood pressure” value [29] was 74%, the Aggregation [30] was 0% and the Activity [31] was 163.1.
`Cc1c2c(cc3c(=O)cc(N4CCOCC4)oc13)CC(CN1CCSCC1)O2` (stereo not given) showed an IC50 [1] of 3.6 µM and a Relative potency [2] of 2.4.
